Data published in article PMC12857768 (Journal of medicinal chemistry, 2024).
Entries after “also recorded” stand apart in the source; their conditions may differ.

Tests used:
GC-induced bone loss = settings: murine model of GC excess; previous studies; cited from earlier work
Pyk2 kinase = Pyk2 kinase (Homo sapiens, UniProt Q14289); experiment: Pyk2 kinase activity assay; assay type: biochemical; settings: for Pyk2 kinase inhibitory effect (in words): kinase inhibitory assay
skin lesions = experiment: Skin lesions / adverse side effects in mice during the in vivo study; parameters: species or system C57BL/6 female mice; settings: 10 mg/kg oral gavage 5 times per week
[1] = test system: circulating organ toxicity biomarkers; experiment: In vivo toxicity: circulating markers of organ toxicities; parameters: species or system mice; settings: serum/plasma at end of study, 10 mg/kg oral gavage, N = 9-10

Chain of Pyk2 kinase (Q14289 whole entry): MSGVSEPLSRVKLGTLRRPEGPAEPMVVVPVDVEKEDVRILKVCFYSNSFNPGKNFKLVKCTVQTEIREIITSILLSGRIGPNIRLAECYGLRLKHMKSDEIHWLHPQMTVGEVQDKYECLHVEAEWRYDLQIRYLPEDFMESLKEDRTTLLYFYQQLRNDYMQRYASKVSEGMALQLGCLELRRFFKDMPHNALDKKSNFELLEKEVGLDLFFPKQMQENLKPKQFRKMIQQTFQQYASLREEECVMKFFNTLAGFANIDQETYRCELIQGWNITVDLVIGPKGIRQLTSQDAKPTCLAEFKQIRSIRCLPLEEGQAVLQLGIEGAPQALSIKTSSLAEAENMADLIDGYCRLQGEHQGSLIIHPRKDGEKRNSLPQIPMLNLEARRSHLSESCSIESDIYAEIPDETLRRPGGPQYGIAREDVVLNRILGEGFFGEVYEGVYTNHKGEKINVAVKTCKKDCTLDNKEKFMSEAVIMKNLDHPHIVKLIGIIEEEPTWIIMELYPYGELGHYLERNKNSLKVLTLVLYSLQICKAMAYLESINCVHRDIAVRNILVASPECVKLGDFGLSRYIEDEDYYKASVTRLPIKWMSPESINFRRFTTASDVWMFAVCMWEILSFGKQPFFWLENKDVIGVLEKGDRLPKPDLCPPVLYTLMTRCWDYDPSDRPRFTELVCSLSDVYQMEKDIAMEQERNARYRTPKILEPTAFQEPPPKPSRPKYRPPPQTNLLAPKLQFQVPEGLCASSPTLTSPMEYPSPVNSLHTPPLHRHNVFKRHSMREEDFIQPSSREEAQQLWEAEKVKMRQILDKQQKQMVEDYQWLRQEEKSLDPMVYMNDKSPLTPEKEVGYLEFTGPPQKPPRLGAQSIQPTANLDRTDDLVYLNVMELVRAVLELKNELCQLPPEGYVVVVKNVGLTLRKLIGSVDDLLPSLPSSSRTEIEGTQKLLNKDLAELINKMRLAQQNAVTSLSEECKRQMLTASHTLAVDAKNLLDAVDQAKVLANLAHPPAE

SMILES | Prevention of GC-induced bone loss (GC-induced bone loss) | IC50 (Pyk2 kinase) | Pyk2 kinase inhibitory effect (in words) (Pyk2 kinase) | Skin lesions / adverse side effects (in words) (skin lesions) | Circulating organ toxicity biomarkers vs control groups [1] | Circulating organ toxicity biomarkers vs control groups ([1]; 10 mg/kg)
CN(c1ccccc1CNc1nc(Nc2ccc3c(c2)CC(=O)N3)ncc1C(F)(F)F)S(C)(=O)=O [PF-431396] | prevents GC-induced bone loss |  |  |  |  | 
CNC(=O)c1ccccc1Nc1nc(Nc2ccc(N3CCC(OC(=O)CCCCC(=O)NCCCC(O)(P(=O)(O)O)P(=O)(O)O)CC3)cc2OC)ncc1Cl [BT-Ester, (4-(6-((1-(4-((5-Chloro-4-((2-(methylcarbamoyl)phenyl)amino)pyrimidin-2-yl)amino)-3-methoxyphenyl)piperidin-4-yl)oxy)-6-oxohexanamido)-1-hydroxybutane-1,1-diyl)bis(phosphonic Acid)] |  | 119 ± 41 nM | low inhibition | did not develop skin lesions | None of the markers were significantly elevated above control levels | 
CNC(=O)c1ccccc1Nc1nc(Nc2ccc(NC(=O)CCCCC(=O)NCCCC(O)(P(=O)(O)O)P(=O)(O)O)cc2OC)ncc1Cl [BT-Amide, (4-(6-((4-((5-Chloro-4-((2-(methylcarbamoyl)phenyl)amino)pyrimidin-2-yl)amino)-3-methoxyphenyl)amino)-6-oxohexanamido)-1-hydroxybutane-1,1-diyl)bis(phosphonic Acid)] |  |  | moderate inhibitory effects | no adverse side effects were observed |  | no significant difference; also recorded: None of the markers were significantly elevated above control levels
